US20260083701A1, “COMPOSITIONS, FORMULATIONS, AND METHODS FOR TREATMENT OF INFLAMMATORY CONDITIONS” (Oddity Labs, LLC, priority 2023, published 2026)

Columns and labels:
IL-4 = experiment: Functional Th2-blocking activity: IL-4 expression in primary human Th2 cells (intracellular flow cytometry); format: cell-based; conditions: primary human CD4+ Th2 cells; for % Normalized Reduction of Cytokine Expression From Baseline in CD4+ T Cells IL-4: normalized against vehicle control (water), 3 days co-culture, PMA/ionomycin 6 hours; for Expression of Cytokine following Stimulation (% X Positive among CD4+ T cells) IL-4: 3 days co-culture with compound, PMA/ionomycin stimulation 6 hours
Description: (§1) To produce T helper 2 (Th2) cells, peripheral blood mononuclear cells (PBMCs) were harvested from healthy donor leukopaks using Ficoll gradients. Naive CD4+ T cells were further isolated, then activated using TransAct or Dynabeads (depending on the donor). CD4+ T cells were activated for two days in the presence of low dose IL-2 (30 IU/mL) in X-VIVO-15 media containing 5% human AB serum (activation cycle). On the second day, the media was exchanged and supplemented with interleukin 4 (IL-4) (20 ng/mL), anti-IFN-gamma antibody (1 μg/mL), and interleukin 2 (IL-2) (rest cycle). The cells were cultured for an additional five days then evaluated for Prostaglandin D2 receptor 2 (DP2 or CRTH2) expression and IL-4 and interleukin 13 (IL-13) expression following phorbol myristate acetate (PMA)/ionomycin stimulation. If the expression of CRTH2 was >50%, the cells were frozen and used in Th2 IL-4/IL-13 bioactivity assays. If the expression of CRTH2 <50%, then the cells were restimulated using TransAct (or Dynabeads) and maintained on similar cycles of activation (2 days) and rest (5 days), until the expression of CRTH2 exceeded 50%. Typically, no more than 4 cycles are needed before the Th2 cells may be harvested and frozen.
(§2) For testing the ability of a compound or salt of the present disclosure to reduce the expression of IL-4 and IL-13 was tested in primary human Th2 cells, the abovementioned cells were thawed, then cultured for one day in IL-2 containing media. The Th2 cells were treated with compounds added at varying concentrations for three days, after which, the cells were washed, and stimulated with PMA/ionomycin for 6 hrs prior to readabout via intracellular flow cytometry.
(§3) The ability of a compound or salt of the present disclosure to reduce the expression of IL-4 and IL-13 was tested in primary human Th2 cells. Naive, primary human CD4+ T cells were isolated from healthy donors and differentiated into Th2 cells using a combination of IL-4 cytokine and anti-IFN-gamma antibody, based on a modified protocol from Scott et al (Activation of Th2 cells downregulates CRTh2 through an NFAT1 mediated mechanism. PLoS One. 2018 Jul. 3; 13(7):e0199156). Th2 cells were CRTH2+ and expressed IL-4 and IL-13 following PMA/ionomycin stimulation. Prior to PMA/ionomycin stimulation, Th2 cells were co-cultured with a compound or salt of the present disclosure for 3 days and then stimulated for 6 hours. Intracellular flow cytometry was performed to investigate the expression of IL-4 and IL-13 among stimulated CD4+ Th2 cells. The compound or salt was evaluated across a 2-log concentration range. Th2 cells were cultured in X-VIVO-15 media with human AB serum and supplemented with low dose IL-2 (30 IU/mL). The antibody panel that was used is listed below. All antibodies were obtained from Biolegend.
(§4) Description of Calculation for: (1) Expression of Cytokine following Stimulation (% X Positive among CD4+ T cells), and (2) % Normalized Reduction of Cytokine Expression From Baseline in CD4+ T Cells
(§5) The expression of IL-4 and IL-13 was measured based on positive gated fractions among CD4+ Th2 cells. The number is expressed as a positive percentage, determined based on the fluorescence-minus-one (FMO) control. The max percent is 100%. The normalized reduction value uses the vehicle control (water) to normalize against using the following percent change formula. (Cmpd: compound)

IL-13 = experiment: Functional Th2-blocking activity: IL-13 expression in primary human Th2 cells (intracellular flow cytometry); format: cell-based; conditions: for Expression of Cytokine following Stimulation (% X Positive among CD4+ T cells) IL-13: 3 days co-culture with compound, PMA/ionomycin stimulation 6 hours; for % Normalized Reduction of Cytokine Expression From Baseline in CD4+ T Cells IL-13: normalized against vehicle control (water), 3 days co-culture, PMA/ionomycin 6 hours
Description: as §1, §2, §3, §4, §5

Row | SMILES | % Normalized Reduction of Cytokine Expression From Baseline in CD4+ T Cells IL-4 (IL-4) | Expression of Cytokine following Stimulation (% X Positive among CD4+ T cells) IL-4 (IL-4) | Expression of Cytokine following Stimulation (% X Positive among CD4+ T cells) IL-13 (IL-13) | % Normalized Reduction of Cytokine Expression From Baseline in CD4+ T Cells IL-13 (IL-13)
1 | O=C(C1CCc2cn[nH]c2C1)N1C[C@H]2CCC[C@@]2(c2nc(-c3ccccc3)no2)C1 (stereo in doubt) [IV-1, 6-[(3aS,6aS)-3a-(3-phenyl-1,2,4-oxadiazol-5-yl)-octahydrocyclopenta[c]pyrrole-2-carbonyl]-4,5,6,7-tetrahydro-1H-indazole] | C (C represents 20% to less than 25%) | B (B represents 30% to less than 35%) | C (C represents 14% to less than 18%) | C (C represents 40% to less than 50%)
2 | O=C1CCC(N2Cc3c(OCC(=O)N4CCCC(c5ccccn5)C4)cccc3C2=O)C(=O)N1 (stereo not shown) [Compound V-2, 3-(1-oxo-4-{2-oxo-2-[3-(pyridin-2-yl)piperidin-1-yl]ethoxy}-2,3-dihydro-1H-isoindol-2-yl)piperidine-2,6-dione] | D (D represents 25% or greater) | A (A represents 0% to less than 30%) | B (B represents 10% to less than 14%) | D (D represents 50% or greater)
3 | O=C(Nc1cccc(-c2ccc3nnc(-c4ccncc4)n3n2)c1)c1ccc(Cl)nc1 [III-2, 6-chloro-N-{3-[3-(pyridin-4-yl)-[1,2,4]triazolo[4,3-b]pyridazin-6-yl]phenyl}pyridine-3-carboxamide] | C (C represents 20% to less than 25%) | B (B represents 30% to less than 35%) | C (C represents 14% to less than 18%) | C (C represents 40% to less than 50%)
4 | CCNC(=O)COc1cccc(NC(=O)c2sccc2-n2c(C)ccc2C)c1 [III-3, 3-(2,5-dimethyl-1H-pyrrol-1-yl)-N-{3-[(ethylcarbamoyl)methoxy]phenyl} thiophene-2-carboxamide] | B (B represents 15% to less than 20%) | B (B represents 30% to less than 35%) | B (B represents 10% to less than 14%) | D (D represents 50% or greater)
5 | Cc1cc(NC(=O)CC23CC4CC(CC(C4)C2)C3)cc(-c2nc3ncccc3o2)c1O [III-4, 2-(1-adamantyl)-N-(4-hydroxy-3-methy1-5-[1,3]oxazolo[4,5-b]pyridin-2-ylphenyl)acetamide] | C (C represents 20% to less than 25%) | B (B represents 30% to less than 35%) | C (C represents 14% to less than 18%) | B (B represents 30% to less than 40%)
6 | O=C(Cc1c[nH]c2ccccc12)Nc1cccc(-c2ccc3nnc(-c4cccnc4)n3n2)c1 [III-5, 2-(1H-indol-3-yl)-N-{3-[3-(pyridin-3-yl)-[1,2,4]triazolo[4,3-b]pyridazin-6-yl]phenyl}acetamide] | A (A represents 0% to less than 15%) | C (C represents 35% to less than 40%) | B (B represents 10% to less than 14%) | D (D represents 50% or greater)
7 | O=C(Cc1ncc(C(F)(F)F)cc1Cl)Nc1ccc(N2CCOCC2)cc1 [III-6, 2-[3-chloro-5-(trifluoromethyl)pyridin-2-yl]-N-[4-(morpholin-4-yl)phenyl]acetamide] | B (B represents 15% to less than 20%) | B (B represents 30% to less than 35%) | C (C represents 14% to less than 18%) | B (B represents 30% to less than 40%)
8 | O=C(Nc1cccc(NC(=O)c2ccc3[nH]c4c(c3c2)CCCC4)c1)c1ccccc1 [III-7, N-(3-benzamidophenyl)-2,3,4,9-tetrahydro-1H-carbazole-6-carboxamide] | D (D represents 25% or greater) | A (A represents 0% to less than 30%) | B (B represents 10% to less than 14%) | D (D represents 50% or greater)
9 | Cc1nnc(-c2cccc(-c3noc(-c4c[nH]c(=O)c5ccccc45)n3)c2)[nH]1 [IV-2, 4-{3-[3-(5-methyl-4H-1,2,4-triazol-3-yl)phenyl]-1,2,4-oxadiazol-5-yl}-1,2-dihydroisoquinolin-1-one] | D (D represents 25% or greater) | B (B represents 30% to less than 35%) | B (B represents 10% to less than 14%) | D (D represents 50% or greater)
10 | O=c1c2ccccc2c(-c2nc(-c3ccccc3Cl)no2)nn1-c1ccccc1 [IV-3, 4-[3-(2-chlorophenyl)-1,2,4-oxadiazol-5-yl]-2-phenyl-1,2-dihydrophthalazin-1-one] | C (C represents 20% to less than 25%) | B (B represents 30% to less than 35%) | C (C represents 14% to less than 18%) | B (B represents 30% to less than 40%)
11 | O=C(NC1CCN(C(=O)c2cn(-c3ccc(F)cc3)nn2)CC1)c1cc2ccccc2[nH]1 [VI-1, N-{1-[1-(4-fluorophenyl)-1H-1,2,3-triazole-4-carbonyl]piperidin-4-yl}-1H-indole-2-carboxamide] | D (D represents 25% or greater) | B (B represents 30% to less than 35%) | C (C represents 14% to less than 18%) | B (B represents 30% to less than 40%)
12 | O=C(NCCn1ccc2ccccc21)NC1CC(=O)N(c2cccc(F)c2)C1 (stereo not shown) [VI-2, 3-[1-(3-fluorophenyl)-5-oxopyrrolidin-3-y1]-1-[2-(1H-indol-1-yl)ethyl]urea] | D (D represents 25% or greater) | B (B represents 30% to less than 35%) | D (D represents 18% or greater) | A (A represents 0% to less than 30%)
13 | COC(=O)c1sccc1-n1c(C)ccc1C [VI-3, methyl 3-(2,5-dimethyl-1H-pyrrol-1-yl)thiophene-2-carboxylate] | B (B represents 15% to less than 20%) | B (B represents 30% to less than 35%) | C (C represents 14% to less than 18%) | C (C represents 40% to less than 50%)
